From publication PMC9221509, “Discovery of a Novel Antimicrobial Peptide, Temporin-PKE, from the Skin Secretion of Pelophylax kl. esculentus, and Evaluation of Its Structure-Activity Relationships” (Biomolecules, 2022)
In brackets after ≈: the same amount, converted by molar mass. Read-outs that look alike come from different tables or passages of the source. Non-standard residues stand in square brackets, D forms with d. Residues, ends and D or L forms follow the SMILES beside them. No end group written: not given here.

Tests used:
[1] = test system: MRSA (NCTC 12493); assay type: cell-based, methicillin-resistant Staphylococcus aureus; conditions: NCTC 12493, 24 h
Method: (§1) The antimicrobial activities of peptides were evaluated against the Gram-positive bacteria, S. aureus (ATCC 6538), methicillin-resistant Staphylococcus aureus (MRSA) (NCTC 12493), Enterococcus faecalis (E. faecalis) (NCTC 12697); the Gram-negative bacteria, E. coli (ATCC CRM 8739), Klebsiella pneumoniae (K. pneumoniae) (ATCC 43816), Pseudomonas aeruginosa (P. aeruginosa) (ATCC CRM 9027); and the yeast, Candida albicans (C. albicans) (ATCC CRM 10231). Clinical isolates of MRSA (B042 V2E1 A), E. coli (ATCC BAA-2340), K. pneumoniae (ATCC BAA-1705), and P. aeruginosa (B004 V2S2 B) were also used to determine their antimicrobial activities. The suspension of microorganisms in the logarithmic growth phase with a specific final density (Gram-negative and Gram-positive bacteria: 5 × 10^5 CFU/mL; yeast: 1 × 10^6 CFU/mL) was incubated with different peptide concentrations from 1 µM to 512 µM at 37 °C for 24 h. PBS was used as the negative control, and norfloxacin and amphotericin B were selected as the positive control for bacteria and yeast, respectively. Since the Norfloxacin had weak activities against P. aeruginosa (B004 V2S2 B) and K. pneumoniae (ATCC BAA 1705), gentamicin was used as the positive control for these two bacterial strains. The absorbance of each well was obtained using a microplate reader (EL808, Biolise BioTek, Winooski, VT, USA) set at 550 nm wavelength. The MIC value was the lowest concentration of a peptide that inhibits visible bacterial growth. Once the MIC values were determined, an aliquot from the bacterial culture exposed to the peptide at or above its MIC value was inoculated on a Mueller Hinton agar (MHA) and was incubated at 37 for 18 h. The MBC value was the lowest concentration of a peptide that kills 99.9% of bacteria.
(§2) According to the procedures in a previous article, the analysis of the sensitivity of the peptides was determined by measuring MIC values in the presence of different types of salts and 10% fetal bovine serum. MRSA (NCTC 12493) and K. pneumoniae (ATCC 43816) were selected as the subjects of these assays. Various salts at different concentrations, including 150 mM NaCl, 4.5 mM KCl, 6 μM NH4Cl, 1 mM MgCl2, […], […], and 10% serum (Gibco, Auckland, New Zealand), were added to the MHB medium for the examination of the MIC values which were determined as described in Section 2.7.

[2] = test system: E. faecalis (NCTC 12697) biofilm; assay type: cell-based, Enterococcus faecalis; conditions: NCTC 12697, 24 h
Method: (§3) The anti-biofilm activities of the peptides against S. aureus (ATCC 6538), MRSA (NCTC 12493), E. faecalis (NCTC 12697), E. coli (ATCC CRM 8739), K. pneumoniae (ATCC 43816), and P. aeruginosa (ATCC CRM 9027), were evaluated. For the MBIC assay, 99 µL of bacterial suspension (5 × 10^5 CFU/mL) was mixed with 1 µL of serial dilutions (from 100 µM to 51,200 µM) of temporin-PKE and its analogues in a 96-well plate, and the plate was incubated in a moist shaking incubator at a speed of 200 rpm at 37 °C for 24 h. For the MBEC assay, 100 µL of bacterial suspension (5 × 10^5 CFU/mL) in each well was seeded in a new 96-well plate, and the plate was put into the same shaking incubator for 24 h incubation to allow biofilm formation on the well. After biofilm formation, the biofilm in the plate was washed with PBS twice. The PBS was aspirated between washes to remove planktonic bacterial cells. The washed biofilm in each well was treated with 100 µL of serial dilutions (from 1 µM to 512 µM) of the test peptides. Then, the plate was incubated in the same shaking incubator for another 24 h. After being washed by PBS twice and fixed with methanol, the biofilm in each well was incubated with 100 µL of 0.1% crystal violet for 30 min, and the stained biofilm was dissolved in 100 µL of glacial acidic acid after drying. The solutions were transferred to a new microplate, and the absorbance of each well was measured using a microplate reader (EL808, Biolise BioTek, Winooski, VT, USA) set to 595 nm wavelength. The MBIC was the minimum concentration of the peptide showing no biofilm formation. The MBEC is the lowest concentration of the peptide capable of eradicating the mature biofilms, which had no biofilm in the well.

[3] = test system: K. pneumoniae (ATCC 43816); assay type: cell-based, Klebsiella pneumoniae; conditions: ATCC 43816, 24 h
Method: as §1, §2

[4] = test system: C. albicans (ATCC CRM 10231); assay: organism not typed; assay type: cell-based, Candida albicans; conditions: for MBC: ATCC CRM 10231, 18 h; for MIC: ATCC CRM 10231, 24 h
Method: as §1

[5] = test system: P. aeruginosa (ATCC CRM 9027) biofilm; assay type: cell-based, Pseudomonas aeruginosa; conditions: ATCC CRM 9027, 24 h
Method: as §3

Molecule	MIC against MRSA in the presence of 4 µM FeCl3 [1]	MIC against MRSA in the presence of 6 µM NH4Cl [1]	MIC against MRSA in the presence of 8 µM ZnCl2 [1]	MIC against MRSA in the presence of 1 mM MgCl2 [1]	MIC against MRSA in the presence of 2 mM CaCl2 [1]	MIC against MRSA in the presence of 4.5 mM KCl [1]	MIC against MRSA in the presence of 150 mM NaCl [1]	MIC against MRSA in the presence of 10% FBS [1]	MIC against MRSA, Negative [1]	MBIC [2]	MIC against K. pneumoniae in the presence of 4 µM FeCl3 [3]	MIC against K. pneumoniae in the presence of 6 µM NH4Cl [3]	MIC against K. pneumoniae in the presence of 8 µM ZnCl2 [3]	MIC against K. pneumoniae in the presence of 1 mM MgCl2 [3]	MIC against K. pneumoniae in the presence of 2 mM CaCl2 [3]	MIC against K. pneumoniae in the presence of 4.5 mM KCl [3]	MIC against K. pneumoniae in the presence of 150 mM NaCl [3]	MIC against K. pneumoniae in the presence of 10% FBS [3]	MIC against K. pneumoniae, Negative [3]	MBIC [5]	further results
CC[C@@H](C)[C@@H](NC(=O)[C@H](CCCCN)NC(=O)[C@@H]1CCCN1C(=O)[C@H](CC(C)C)NC(=O)[C@H](CC(C)C)NC(=O)[C@H](CO)NC(=O)[C@H](CO)NC(=O)[C@H](CC(C)C)NC(=O)[C@H](C)NC(=O)CNC(=O)[C@H](NC(=O)[C@H](NC(=O)[C@H](CC(C)C)NC(=O)[C@@H]1CCCN1C(=O)[C@H](CC(C)C)NC(=O)[C@@H](N)Cc1ccccc1)[C@H](C)CC)[C@H](C)CC)C(=O)N[C@@H](Cc1ccccc1)C(N)=O [Temporin-PKE-3i] (H-FLPL[dI][dI]GALSSLLPK[dI]F-NH2)	128 µM	256 µM	512 µM	256 µM	256 µM	512 µM	512 µM	512 µM	64 µM (≈ 118 µg/mL)	128 µM	>512 µM	>512 µM	>512 µM	>512 µM	>512 µM	>512 µM	>512 µM	>512 µM	>512 µM	>512 µM	MBC ([4]; read-out: MBC): 256 µM (≈ 471 µg/mL)
FLPLIIGKLSSLLPKIF-NH2 [Temporin-PKE-2K]	2 µM	4 µM	16 µM	4 µM	4 µM	4 µM	8 µM	8 µM	2 µM	16 µM	16 µM	16 µM	16 µM	32 µM	32 µM	16 µM	128 µM	64 µM	16 µM	>512 µM	MBC ([4]; read-out: MBC): >512 µM; MIC ([4]; read-out: MIC): >512 µM
FLPKIIGKLSSLLPKIF-NH2 [Temporin-PKE-3K]	2 µM	4 µM	16 µM	4 µM	4 µM	4 µM	8 µM	4 µM	2 µM	4 µM	16 µM	4 µM	4 µM	16 µM	16 µM	4 µM	16 µM	16 µM	4 µM	64 µM	MBC ([4]; read-out: MBC): 64 µM; MIC ([4]; read-out: MIC): 32 µM
FLPLIIGALSSKLPKIF-NH2 [Temporin-PKE-K12]	8 µM	8 µM	32 µM	16 µM	16 µM	32 µM	32 µM	32 µM	4 µM	64 µM	32 µM	32 µM	64 µM	128 µM	256 µM	32 µM	128 µM	128 µM	32 µM	>512 µM	MBC ([4]; read-out: MBC): >512 µM; MIC ([4]; read-out: MIC): >512 µM
FLPKIIGKLSSKLPKIF-NH2 [Temporin-PKE-4K]	32 µM	32 µM	128 µM	32 µM	64 µM	32 µM	128 µM	128 µM	32 µM	256 µM	16 µM	16 µM	16 µM	64 µM	128 µM	16 µM	64 µM	64 µM	16 µM	128 µM	MBC [4]: 64 µM; MIC [4]: 64 µM
FLPLIIGALSSLLPKIF-NH2 [Temporin-PKE]	8 µM	8 µM	32 µM	8 µM	8 µM	8 µM	8 µM	16 µM	2 µM	32 µM	>512 µM	>512 µM	>512 µM	>512 µM	>512 µM	>512 µM	>512 µM	>512 µM	>512 µM	>512 µM	MBC ([4]; read-out: MBC): >512 µM; MIC ([4]; read-out: MIC): >512 µM
